“Also recorded” adds a separate entry of the source.
Tests used:
[1] = FP purification and fluorescence characterization in vitro (spectra, extinction coefficient, quantum yield); assay type: physicochemical
Description: FP genes were expressed on a pBAD vector (Life Technologies) with a polyhistidine tag on the C terminus, cells were lysed with B-PER (Thermo Scientific), and purified using Ni-NTA (Qiagen) puri-fication. PCB (HO-1+PcyA) and BV (HO-1) incorporation in Escherichia coli was performed simultaneously during constitu-tively active FP expression. Extinction coefficient was determined by PCB or BV absorbance as described35,36 (Table 3, smURFP+BV and TDsmURFP+BV, and Table 2) or calculated for the apoproteins by determining the protein concentration by the BCA protein assay (Pierce), and a specific chromo-phore concentration was added (specified in the Purification of FP lacking chromophore and in vitro chromophore incorporation section) to get 1 and 2 chromophore species (Table 5, not including (Escherichia coli)). When FP chromophore (PCB or BV) was expressed in Escherichia coli, the PCB and BV Q band had absorbance that overlapped with detection of BCA or Bradford assay of 562 nm and 592 nm, respectively. We used the previously published protocols35,36, where there was no change of the BV absorbance at 390 nm when free in solution or attached to the FP. smURFP+BV denaturation with 1 M urea caused no change in the BV absorbance at 390 nm, but the Q band was reduced ˜20-fold. Therefore, the extinction coefficient of BV at 390 nm was used to calculate the concentration of holoprotein (FP+PCB or BV) concentration.
EX and EM spectra were obtained using SPEX Fluorolog fluorometer (Horiba). Absorbance spectra were obtained using UV-VIS Spectrophotometer Cary Eclipse (Varian) or UV-2700 (Shimadzu). Quantum yield was determined relative to Cy5. Incorporation rates of BV on 0.5 μM smURFP was performed by addition of smURFP to PBS alone or with 20% fetal bovine serum (FBS) and mixed by pipetting in a quartz cuvette. Chromophore was added last, mixed by pipetting, and fluorescence was recorded using SPEX Fluorolog fluorometer (Horiba). Photobleaching was characterized on bubbles of purified FP or Cy5 within mineral oil using light from a 150 W xenon arc lamp with 100% light through EX/EM=628(40)/680(30) nm for smURFP, TDsmURFP, and Cy5 or EX/EM=665 (45)/725 (50) nm for IFP 1.4 focused with a 40×, 1.2 numerical aperture C-Apochromat oil-immersion lens on a Zeiss Axiovert 200M inverted microscope. Photobleaching times were normalized to reflect an initial illumination intensity producing 1,000 photons per fluorescent molecule per second as previously described^37.
HO-1 was removed by digesting the pBAD vector (Life Technology) with MscI and PmeI (NEB). smURFP and TDsmURFP were expressed and purified as described above. No chromophore was present on smURFP and TDsmURFP (confirmed by UV, fluorescence imaging, and MS). For predominant fluorescent species+2 chromophores, a ten-fold excess of chromophore was added to smURFP and TDsmURFP. For predominant fluorescent species+1 chromophore, a quarter concentration of chromophore was added to smURFP and TDsmURFP. Chromophore was added in PBS+10% FBS at 37° C. overnight. smURFP+chromophore and TDsmURFP+chromophore were purified using NiNTA (Qiagen) to remove excess or noncovalently attached chromophore.

[2] = tested on: HEK293A cells; assay: Fluorescence imaging of FPs in HEK293A cells with chromophore addition or HO-1 expression; assay type: cell-based
Description: smURFP codons were optimized for human cell expression, and the gene was created by GenScript. smURFP, TDsmURFP (created from mammalian-optimized smURFP), IFP1.4 (mammalian-optimized form^35), IFP2.0 (mammalian-optimized form^46), and iRFP713 (mammalian-optimized form^36) were PCR amplified using Phusion High-Fidelity DNA Polymerase (NEB) with primers containing 5′ HindIII and 3′ XhoI restriction enzyme sites. HindIII-HF and XhoI (NEB)-digested PCR fragments were gel purified (Zymoclean Gel DNA Recovery Kit) and were ligated (T4 DNA Ligase, Life Technologies) into a similarly digested pCDNA3-IRES-eGFP vector (bicistronic to express two FPs in the same cell). For creation of HO-1-expressing mammalian vec-tors, the Synechocystis HO-1 was used, and the codons were not optimized for mammalian expression. Synechocystis HO-1 was directly amplified from the pBAD vector using primers containing 5′ BsiWI and 3′ XbaI restriction enzyme sites. pCDNA3 smURFP, TDsmURFP, IFP1.4, IFP2.0, or iRFP713-IRES-eGFP vectors were digested with BsiWI and XbaI (NEB), dephosphorylated (SAP, Roche), gel purified (Zymoclean Gel DNA Recovery Kit), and ligated (T4 DNA Ligase, Life Technologies) with similarly digested, purified HO-1 PCR fragment. For creation of smURFP fusions, smURFP was PCR amplified using Phusion High-Fidelity DNA Polymerase (NEB) with primers containing 5′ AgeI and 3′ NotI restriction enzyme sites for N-terminal fusions or with primers containing 5′ AgeI and 3′ BspEI restriction enzyme sites for C-terminal fusions. mGeos2-VEL-ManII-N-10 (Addgene 57551) and Dronpa-PDHA1-N-10 (Addgene 57292) vectors were digested with AgeI and NotI (NEB) and mCherry-αTubulin-C-18 (Addgene 55148) and tdTomato-LaminB1-10 (Addgene 58107) were digested with AgeI and BspEI, dephosphorylated (SAP, Roche), gel purified (Zymoclean Gel DNA Recovery Kit), and ligated (T4 DNA Ligase, Life Technologies) with similarly digested, purified smURFP PCR fragment. HEK293A (Invitrogen, Life Technologies), HT1080 (ATCC), and PC3 (ATCC) cells were grown in Dulbecco's Modified Eagle's medium (DMEM, Corning), supplemented with 10% FBS (Atlanta Biologicals)+1×penicillin—streptomycin (Fisher Scientific), which is referred to as growth media, on poly-D-lysine-coated glass-bottom culture dishes (MatTek, No. P35G-0-14-C). The HEK cell line is listed in the ICLAC and NCBI biosample databases and is commonly misidentified as the HeLa cell line. For expression of exogenous fluorescent proteins, there is no problem if there is a contaminating cell line because no endogenous biology or therapeutic results are being determined. HEK293A cells were purchased from Invitrogen (Life Technologies), and all experiments are derived from the same expanded frozen stock without cell line authentication or mycoplasma detection. Cells were transfected using 2 μg of circular DNA+5 μl Lipofectamine 2000 (Life Technologies) in 2 ml Opti-MEM (Life Technologies) for 4-5 h, transfection media was discarded, and prewarmed growth media was added. Chromophores (5 mM in DMSO) were added at indicated concentrations to growth media, warmed for 10-15 min at 37° C., and added to cells. For multiple timepoints, incubations were staggered to maintain equivalent incubation. Prior to imaging, cells were washed 1×2 ml growth media, 2×2 ml imaging solution, and imaged in 2 ml imaging solution. Fluorescence imaging was performed on a Zeiss Axiovert 200M inverted microscope controlled by SlideBook software. FPs were imaged with the following settings: eGFP, EX/EM=495(10)/535(25) nm, tdTomato EX/EM=540(25)/595(50) nm; mCherry and mCardinal, EX/EM=580(20)/653(95) nm; smURFP and TDsmURFP, EX/EX=628(40)/680(30) nm; and IFP1.4, IFP2.0, and iRFP713, EX/EM=665(45)/725(50) nm. […]

[3] = BV or BVMe2 concentration in plasma, in vitro; conditions: 10 μM, 37° C., up to 1,440 min
Description: Whole blood was collected via abdominal aorta and placed in tubes with lithium heparin (BD, No. 365971) on ice. Tubes were centrifuged to remove red blood cells, and plasma was stored on ice for 30 min. Clarified plasma was combined and aliquoted into 9×70 μl aliquots and placed on ice. The following nine experiments were performed: starting plasma (1) and plasma+10 μM BV (2-5) or BVMe2(6-9) at time 0 at 4° C. and 15, 60, and 1,440 min at 37° C. Reactions were stopped by freezing at −80° C. Plasma samples were thawed, diluted 4× with cold 50% ACN, 48% water (H2O), and 2% acetic acid, and centrifuged for 14 min at 4° C. Reverse-phase high performance liquid chromatography (HPLC) was performed on an Agilent 1100 Series HPLC on a Phenomenex Luna C18(2) reverse-phase column 100 Å, 250 cm×21.20 mm I.D. 10 μm reverse-phase column (00G-4253-P0 AX), with a 21 min, 10-90% H2O:ACN (0.05% trifluoroacetic acid, TFA) gradient and a flow rate of 1 ml/min into a diode array detector and MSD-Ion Trap (Agilent LC/MSD trap XCT).

quantum yield (QY) [1]: 0.013%
Compound: C=CC1=C(C)/C(=C/C2=NC(=C\c3[nH]c(/C=C4\NC(=O)C(C)=C4C=C)c(C)c3CCC(=O)O)/C(CCC(=O)O)=C2C)NC1=O [BV, biliverdin, reference compound]
fluorescence with 25 μM BV at pH 6.4 relative to BV at pH 7.5 ([2]; 3.5 h): increased fluorescence three-fold
fluorescence with protonated BV (pH 6.4) relative to BVMe2 ([2]; pH 6.4): five-fold less
stability in plasma in vitro [3]: slower degradation; also recorded: significantly degraded

From patent US10501502B2, “Allophycocyanin alpha-subunit evolved labeling proteins (smURFPs)” (The Regents of the University of California, priority 2016, dated 2019)
